Measured values: ChEMBL document CHEMBL4420062, “Tfpi inhibitors and methods of use” (2013)
Active and inactive are the calls of the source. No cut-off for these calls is given here. Where a SMILES comes first, the peptide text is derived from it. [ ]: non-standard residue; d: D form. Tle = CC(C)(C)[C@H](N)C(=O)O; Aib = CC(C)(N)C(=O)O

Assays:
Plasma [1] = experiment: Effect on blood coagulation parameters in plasma isolated from hemophilia A patient assessed as clot formation time at 120 nM by rotation thromboelastography (reference value: 1540 secs); format: functional, Homo sapiens
Plasma [2] = experiment: Effect on blood coagulation parameters in plasma isolated from hemophilia A patient assessed as clotting time at 40 nM by rotation thromboelastography (reference value: 2907 secs); format: functional, Homo sapiens
[3] = Stability in mouse plasma assessed as parent compound remaining after 24 hrs; format: ADME, cell-free; conditions: read-out: Stability
Plasma [4] = experiment: (§1) Effect on blood coagulation parameters in plasma isolated from hemophilia A patient at […] by rotation thromboelastography (reference value: 0%); format: functional, Homo sapiens
Plasma [5] = experiment: (§2) Effect on blood coagulation parameters in plasma isolated from hemophilia A patient assessed as clotting time at […] by rotation thromboelastography (reference value: 2907 secs); format: functional, Homo sapiens
Plasma [6] = experiment: Effect on blood coagulation parameters in plasma isolated from hemophilia A patient at 40 nM by rotation thromboelastography (reference value: 0%); format: functional, Homo sapiens
Plasma [7] = experiment: Effect on blood coagulation parameters in plasma isolated from hemophilia A patient assessed as clotting time at 120 nM by rotation thromboelastography (reference value: 2907 secs); format: functional, Homo sapiens
Plasma [8] = experiment: Effect on blood coagulation parameters in plasma isolated from hemophilia A patient at 120 nM by rotation thromboelastography (reference value: 0%); format: functional, Homo sapiens
Plasma [9] = experiment: as §2; format: functional, Homo sapiens; remark: listed apart in the source
[10] = Stability in human plasma assessed as parent compound remaining after 24 hrs; format: ADME, cell-free; conditions: read-out: Stability
Plasma [11] = experiment: (§3) Effect on blood coagulation parameters in plasma isolated from hemophilia A patient assessed as clot formation time at […] by rotation thromboelastography (reference value: 1540 secs); format: functional, Homo sapiens
Plasma [12] = experiment: Effect on blood coagulation parameters in plasma isolated from hemophilia A patient assessed as maximum clot firmness at 40 nM by rotation thromboelastography; format: functional, Homo sapiens
Plasma [13] = experiment: as §1; format: functional, Homo sapiens; remark: listed apart in the source
Plasma [14] = experiment: Effect on blood coagulation parameters in plasma isolated from hemophilia A patient assessed as maximum clot firmness at 120 nM by rotation thromboelastography; format: functional, Homo sapiens
Plasma [15] = experiment: Effect on blood coagulation parameters in plasma isolated from hemophilia A patient assessed as clot formation time at 40 nM by rotation thromboelastography (reference value: 1540 secs); format: functional, Homo sapiens
Plasma [16] = experiment: as §3; format: functional, Homo sapiens; remark: listed apart in the source
Callithrix = conditions: Plasma, 10 uM
[17] = target: T1, Tissue factor pathway inhibitor (Homo sapiens, UniProt P10646); experiment: Inhibition of TFPI in human plasma with induced factor-8 deficiency assessed as increase in thrombin generation by measuring FEIBA at 10 uM using thrombin-specific fluorogenic substrate Z-Gly-Gly-Arg-AMC by calibrated automated thrombography; format: cell-free
T1 sequence (P10646 whole entry): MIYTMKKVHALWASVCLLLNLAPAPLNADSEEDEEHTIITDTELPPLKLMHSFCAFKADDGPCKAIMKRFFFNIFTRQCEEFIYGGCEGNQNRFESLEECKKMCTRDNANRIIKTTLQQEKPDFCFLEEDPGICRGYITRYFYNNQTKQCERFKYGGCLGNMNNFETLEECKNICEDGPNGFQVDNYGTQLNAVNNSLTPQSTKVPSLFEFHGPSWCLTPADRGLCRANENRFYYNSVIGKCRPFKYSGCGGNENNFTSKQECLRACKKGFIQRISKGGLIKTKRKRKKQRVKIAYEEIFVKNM

[18] = target: Tissue factor pathway inhibitor (Homo sapiens) (UniProt P10646); experiment: Inhibition of TFPI in human plasma with induced factor-8 deficiency assessed as increase in thrombin generation by measuring FEIBA at 10 uM using thrombin-specific fluorogenic substrate Z-Gly-Gly-Arg-AMC by calibrated automated thrombography relative to inhibitory polyclonal anti-TFPI antibody; format: cell-free

What does the source list for `CCN1C(=O)CC(SC[C@H](NC(=O)[C@H](CC(C)C)NC(=O)[C@H](CCCCN)NC(=O)[C@H](C)NC(=O)C(C)(C)NC(=O)[C@H](CC(C)C)NC(=O)[C@H](CCCNC(=N)N)NC(=O)[C@H](CCC(=O)O)NC(=O)[C@H](Cc2ccccc2)NC(=O)[C@H](Cc2ccc(O)cc2)NC(=O)CNC(=O)[C@H](CC(=O)O)NC(=O)[C@@H](NC(=O)[C@H](Cc2cnc[nH]2)NC(=O)[C@@H](NC(=O)[C@H](CC(N)=O)NC(=O)[C@H]2CCCN2C(=O)[C@H](CCCCN)NC(=O)[C@H](CO)NC(=O)[C@H](CCC(N)=O)NC(=O)[C@H](Cc2ccccc2)NC(C)=O)C(C)C)C(C)C)C(N)=O)C1=O` (some centres not stated)?
Time (Plasma [1]): 219 s; Time (Plasma [2]): 1143 s; remaining at 24 h [3]: 10 to 15.9%; Activity (Plasma [4]): 0%; Time (Plasma [5]): 2249 s; Activity (Plasma [6]): 119%; Time (Plasma [7]): 853 s; Activity (Plasma [8]): 139%; Time (Plasma [9]): 2901 s; remaining at 24 h [10]: 10 to 23.8%; Time (Plasma [11]): 1480 s; Activity (Plasma [12]): 64 mm; Activity (Plasma [13]): 44%; Activity (Plasma [14]): 64 mm; Time (Plasma [15]): 457 s; Time (Plasma [16]): 2488 s

For `CSCC[C@@H]1NC(=O)[C@H](C)NC(=O)[C@@H](NC(=O)[C@H](Cc2cnc[nH]2)NC(=O)[C@H](Cc2c[nH]c3ccccc23)NC(=O)[C@H](CCCCN)NC(=O)[C@H](Cc2ccc(O)cc2)NC(=O)[C@H](Cc2ccc(O)cc2)NC(=O)[C@H](CO)NC(C)=O)CSSC[C@@H](C(=O)N[C@H](C(=O)N[C@@H](Cc2c[nH]c3ccccc23)C(=O)N[C@H](C(=O)N[C@@H](CCCCN)C(=O)N[C@@H](Cc2ccccc2)C(N)=O)C(C)C)C(C)C)NC(=O)[C@H]([C@@H](C)O)NC(=O)[C@H](CCSC)NC(=O)[C@H]([C@@H](C)O)NC(=O)CNC(=O)[C@@H](CCCCN)NC(=O)[C@H](CCSC)NC(=O)[C@H](CC(=O)O)NC(=O)[C@H](CCCNC(=N)N)NC1=O`, which inhibition (Callithrix) is on record?
The inhibition was “inactive”.

Which EC50 [17] does the source give for `CSCC[C@@H]1NC(=O)[C@H](C)NC(=O)[C@H](NC(=O)[C@H](Cc2cnc[nH]2)NC(=O)[C@H](Cc2c[nH]c3ccccc23)NC(=O)[C@H](CCCCN)NC(=O)[C@H](Cc2ccc(O)cc2)NC(=O)[C@H](Cc2cnc[nH]2)NC(=O)[C@H](CO)NC(C)=O)CSSC[C@@H](C(=O)N[C@H](C(=O)N[C@@H](Cc2c[nH]c3ccccc23)C(=O)N[C@H](C(=O)N[C@@H](CCCCN)C(=O)N[C@@H](Cc2ccccc2)C(N)=O)C(C)C)C(C)C)NC(=O)[C@H](CO)NC(=O)[C@H](CCSC)NC(=O)[C@H]([C@@H](C)O)NC(=O)CNC(=O)[C@H]([C@@H](C)O)NC(=O)[C@H](CCSC)NC(=O)[C@H](CC(=O)O)NC(=O)[C@H](CCCNC(=N)N)NC1=O` here?
The EC50 was 4.8 nM.

What about the inhibition [18] of the same compound?
The inhibition was 55.9%.

With `CC(=O)N[C@@H](Cc1ccccc1)C(=O)N[C@@H](CCC(N)=O)C(=O)N[C@@H](CO)C(=O)N[C@@H](CCCCN)C(=O)N1CCC[C@@H]1C(=O)N[C@@H](CC(N)=O)C(=O)N[C@H](C(=O)N[C@@H](Cc1ccc2ccccc2c1)C(=O)N[C@H](C(=O)N[C@@H](CC(=O)O)C(=O)N[C@H](C)C(=O)N[C@@H](Cc1ccc(O)cc1)C(=O)N[C@@H](Cc1ccccc1)C(=O)N[C@@H](CCC(=O)O)C(=O)N[C@@H](CCCNC(=N)N)C(=O)N[C@@H](CC(C)C)C(=O)NC(C)(C)C(=O)N[C@@H](C)C(=O)N[C@@H](CCCCN)C(=O)N[C@@H](CC(C)C)C(N)=O)C(C)(C)C)C(C)C` as the compound, how does the remaining at 24 h [3] read?
Its remaining at 24 h is 51.1%.

And the remaining at 24 h [10]?
Its remaining at 24 h is 88.8%.

For `CC(=O)NCSC[C@H](NC(=O)[C@H]1CCCN1C(=O)[C@H](CCCCN)NC(=O)[C@H](CO)NC(=O)[C@H](CCC(N)=O)NC(=O)[C@H](Cc1ccccc1)NC(C)=O)C(=O)N[C@H](C(=O)N[C@@H](Cc1c[nH]cn1)C(=O)N[C@H](C(=O)N[C@@H](CC(=O)O)C(=O)NCC(=O)N[C@@H](Cc1ccc(O)cc1)C(=O)N[C@@H](Cc1ccccc1)C(=O)N[C@@H](CCC(=O)O)C(=O)N[C@@H](CCCNC(=N)N)C(=O)N[C@@H](CC(C)C)C(=O)NC(C)(C)C(=O)N[C@@H](C)C(=O)N[C@@H](CCCCN)C(=O)N[C@@H](CC(C)C)C(N)=O)C(C)(C)C)C(C)C`, which remaining at 24 h [3] is on record?
The remaining at 24 h was 36.1%.

What about the remaining at 24 h [10] of the same compound?
Its remaining at 24 h is 81.2%.

With `CC(=O)N[C@@H](Cc1ccccc1)C(=O)N[C@@H](CCC(N)=O)C(=O)N[C@@H](CO)C(=O)N[C@@H](CCCCN)C(=O)N1CCC[C@@H]1C(=O)N[C@@H](CC(N)=O)C(=O)N[C@H](C(=O)N[C@@H](Cc1cnc[nH]1)C(=O)N[C@H](C(=O)N[C@@H](CC(=O)O)C(=O)NCC(=O)N[C@@H](Cc1ccc(O)cc1)C(=O)N[C@@H](Cc1csc2ccccc12)C(=O)N[C@@H](CCC(=O)O)C(=O)N[C@@H](CCCNC(=N)N)C(=O)N[C@@H](CC(C)C)C(=O)NC(C)(C)C(=O)N[C@@H](C)C(=O)N[C@@H](CCCCN)C(=O)N[C@@H](CC(C)C)C(N)=O)C(C)C)C(C)C` as the compound, how does the remaining at 24 h [3] read?
The remaining at 24 h was 6.1%.

What about the remaining at 24 h [10] of the same compound?
Its remaining at 24 h is 46.6%.

Which remaining at 24 h [3] does the source give for `CC(=O)N[C@@H](Cc1ccccc1)C(=O)N[C@@H](CCC(N)=O)C(=O)N[C@@H](CO)C(=O)N[C@@H](CCCCN)C(=O)N1CCC[C@@H]1C(=O)N[C@@H](CC(N)=O)C(=O)N[C@H](C(=O)N[C@@H](Cc1cnc[nH]1)C(=O)N[C@H](C(=O)N[C@@H](CC(=O)O)C(=O)NCC(=O)N[C@@H](Cc1ccc(O)cc1)C(=O)N[C@@H](Cc1ccccc1)C(=O)N[C@@H](CCC(=O)O)C(=O)N[C@@H](CCCNC(=N)N)C(=O)N[C@@H](CC(C)C)C(=O)NC(C)(C)C(=O)N[C@@H](C)C(=O)N[C@@H](CCCCN)C(=O)N[C@@H](CC(C)C)C(N)=O)C(C)(C)C)C(C)C` (Ac-FQSK[dP]NVH[Tle]DGYFERL[Aib]AKL-NH2) here?
Its remaining at 24 h is 42.6%.

What about the remaining at 24 h [10] of the same compound?
Its remaining at 24 h is 81.9%.
